The text below walks through data of patent US10472358B2, “1H-pyrrolo[2,3-c]pyridin-7(6H)-ones and pyrazolo[3,4-c]pyridin-7(6H)-ones as inhibitors of BET proteins” (Incyte Corporation, priority 2014, dated 2019).

SMILES strings stand for the structures. A value given as a limit tells only on which side of the number the result lay.

For the first assay, the system named is KMS.12.BM cells. Description: KMS.12.BM cell viability assay (Cell Titer-GLO, ATP quantitation). Format: cell-based. Conditions: KMS-12-BM, 72 h; human myeloma cells, 3 days, concentration required for 50% cell death. On the procedure:
Example B1: KMS.12.BM Cell Viability Assay
KMS.12.BM cell line (human myeloma) was purchased from JCRB (Osaka, Japan) and maintained in RPMI with 10% FBS culture medium. To measure the cytotoxic activity of the compounds through ATP quantitation, the KMS.12.BM cells are plated in the RPMI culture medium at 5000 cells/well/per 100 μL into a 96-well polystyrene clear black tissue culture plate (Greiner-bio-one through VWR, NJ), in the presence or absence of a concentration range of test compounds. After 3 days, […] Cell Titer-GLO Luminescent (Promega, Madison, Wis.) cell culture agent is added to each well for 10 minutes at room temperature to stabilize the luminescent signal. This determines the number of viable cells in culture based on quantitation of the ATP present, which signals the presence of metabolically active cells. Luminescence is measured with the Top Count 384 (Packard Bioscience through Perkin Elmer, Boston, Mass.). Compound inhibition is determined relative to cells cultured with no drug and the IC50 is reported as the compound concentration required for 50% cell death.
As for `CC(C)C1Oc2c(-c3cn(C)c(=O)c4[nH]ccc34)cc(S(=O)(=O)C(C)C)cc2N(C)C1=O` (stereo not drawn) [Example 56, 2-isopropyl-6-(isopropylsulfonyl)-4-methyl-8-(6-methyl-7-oxo-6,7-dihydro-1H-pyrrolo[2,3-c]pyridin-4-yl)-2H-1,4-benzoxazin-3(4H)-one], the IC50 is ≤ 1 µM.

`CN1C(=O)C(C)(C)Oc2c(-c3cn(C)c(=O)c4[nH]ccc34)cc(S(=O)(=O)N3CCCCC3)cc21` [Example 73, 2,2,4-trimethyl-8-(6-methyl-7-oxo-6,7-dihydro-1H-pyrrolo[2,3-c]pyridin-4-yl)-6-(piperidin-1-ylsulfonyl)-2H-1,4-benzoxazin-3(4H)-one]: the half-maximal inhibitory concentration (IC50) is ≤ 1 µM.

Take `CCN1C(=O)C(C(C)C)Oc2c(-c3cn(C)c(=O)c4[nH]ccc34)cc(S(C)(=O)=O)cc21` (stereo not drawn) [Example 54, 4-ethyl-2-isopropyl-8-(6-methyl-7-oxo-6,7-dihydro-1H-pyrrolo[2,3-c]pyridin-4-yl)-6-(methylsulfonyl)-2H-1,4-benzoxazin-3(4H)-one]: the IC50 was ≤ 1 µM.

Consider `CC(O)c1cc(-c2cn(C)c(=O)c3[nH]ccc23)c2c(c1)N(C)C(=O)C(C)(C)O2` (single isomer, unassigned) [Example 83A, 6-(1-hydroxyethyl)-2,2,4-trimethyl-8-(6-methyl-7-oxo-6,7-dihydro-1H-pyrrolo[2,3-c]pyridin-4-yl)-2H-1,4-benzoxazin-3(4H)-one], for which the IC50 was ≤ 1 µM.

`CC(C)C1Oc2c(-c3cn(C)c(=O)c4[nH]ccc34)cc(C(N)=O)cc2N(C)C1=O` (stereo not drawn) [Example 19, 2-isopropyl-4-methyl-8-(6-methyl-7-oxo-6,7-dihydro-1H-pyrrolo[2,3-c]pyridin-4-yl)-3-oxo-3,4-dihydro-2H-1,4-benzoxazine-6-carboxamide]: the IC50 is ≤ 1 µM.

Consider `CC(C)C1Oc2c(cc(S(C)(=O)=O)cc2-c2cn(C)c(=O)c3[nH]ncc23)NC1=O` (stereo not drawn) [Example 84, 2-isopropyl-8-(6-methyl-7-oxo-6,7-dihydro-1H-pyrazolo[3,4-c]pyridin-4-yl)-6-(methylsulfonyl)-2H-1,4-benzoxazin-3(4H)-one], for which the IC50 was ≤ 1 µM.

On to `CC(C)S(=O)(=O)c1cc2c(c(-c3cn(C)c(=O)c4[nH]ccc34)c1)OC(C)(C)C(=O)N2` [Example 79, 6-(isopropylsulfonyl)-2,2-dimethyl-8-(6-methyl-7-oxo-6,7-dihydro-1H-pyrrolo[2,3-c]pyridin-4-yl)-2H-1,4-benzoxazin-3(4H)-one], for which the IC50 is ≤ 1 µM.

Take `Cn1cc(-c2cccc3c2OC(c2ccccc2)C(=O)N3)c2cc[nH]c2c1=O` (stereo not drawn) [Example 1, 8-(6-methyl-7-oxo-6,7-dihydro-1H-pyrrolo[2,3-c]pyridin-4-yl)-2-phenyl-2H-1,4-benzoxazin-3(4H)-one]: the IC50 was ≤ 1 µM.

As for `Cn1cc(-c2cc(S(C)(=O)=O)cc3c2OC(CCO)C(=O)N3)c2cc[nH]c2c1=O` (stereo not drawn) [Example 48, 2-(2-hydroxyethyl)-8-(6-methyl-7-oxo-6,7-dihydro-1H-pyrrolo[2,3-c]pyridin-4-yl)-6-(methylsulfonyl)-2H-1,4-benzoxazin-3(4H)-one], the IC50 was ≤ 1 µM.

In the case of `Cn1cc(-c2cc(S(C)(=O)=O)cc3c2NC2(CCCC2)C(=O)N3)c2cc[nH]c2c1=O` [Example 59, 8′-(6-methyl-7-oxo-6,7-dihydro-1H-pyrrolo[2,3-c]pyridin-4-yl)-6′-(methylsulfonyl)-1′,4′-dihydro-3′H-spiro[cyclopentane-1,2′-quinoxalin]-3′-one], the half-inhibitory concentration (IC50) is ≤ 1 µM.

As for `CCS(=O)(=O)c1cc2c(c(-c3cn(C)c(=O)c4[nH]ccc34)c1)OC(C(C)C)C(=O)N2` (stereo not drawn) [Example 51, 6-(ethylsulfonyl)-2-isopropyl-8-(6-methyl-7-oxo-6,7-dihydro-1H-pyrrolo[2,3-c]pyridin-4-yl)-2H-1,4-benzoxazin-3(4H)-one], the IC50 was ≤ 1 µM.

In the case of `CC(C)[C@H]1Nc2c(cc(S(C)(=O)=O)cc2-c2cn(C)c(=O)c3[nH]ccc23)NC1=O` [Example 61, (3R)-3-isopropyl-5-(6-methyl-7-oxo-6,7-dihydro-1H-pyrrolo[2,3-c]pyridin-4-yl)-7-(methylsulfonyl)-3,4-dihydroquinoxalin-2(1H)-one], the IC50 is ≤ 1 µM.

With `Cn1cc(-c2cccc3c2OC(C2CCOCC2)C(=O)N3)c2cc[nH]c2c1=O` (stereo not drawn) [Example 7, 8-(6-methyl-7-oxo-6,7-dihydro-1H-pyrrolo[2,3-c]pyridin-4-yl)-2-(tetrahydro-2H-pyran-4-yl)-2H-1,4-benzoxazin-3(4H)-one], the IC50 is ≤ 1 µM.

In the case of `CC(O)c1cc2c(c(-c3cn(C)c(=O)c4[nH]ccc34)c1)OC(C(C)C)C(=O)N2` (stereo not drawn) [Example 50, 6-(1-hydroxyethyl)-2-isopropyl-8-(6-methyl-7-oxo-6,7-dihydro-1H-pyrrolo[2,3-c]pyridin-4-yl)-2H-1,4-benzoxazin-3(4H)-one], the IC50 is ≤ 1 µM.

For the molecule `CC1Oc2c(cccc2-c2cn(C)c(=O)c3[nH]ccc23)NC1=O` (stereo not drawn) [Example 3, 2-methyl-8-(6-methyl-7-oxo-6,7-dihydro-1H-pyrrolo[2,3-c]pyridin-4-yl)-2H-1,4-benzoxazin-3(4H)-one], the IC50 was ≤ 1 µM.

`Cn1cc(-c2cc(S(C)(=O)=O)cc3c2OC2(CC2)C(=O)N3)c2cn[nH]c2c1=O` [Example 65, 8-(6-methyl-7-oxo-6,7-dihydro-1H-pyrazolo[3,4-c]pyridin-4-yl)-6-(methylsulfonyl)spiro[1,4-benzoxazine-2,1′-cyclopropan]-3(4H)-one]: the IC50 was ≤ 1 µM.

For the molecule `CN1C(=O)C(C)(C)Oc2c(-c3cn(C)c(=O)c4[nH]ccc34)cc(S(=O)(=O)N(C)C)cc21` [Example 69, N,N,2,2,4-pentamethyl-8-(6-methyl-7-oxo-6,7-dihydro-1H-pyrrolo[2,3-c]pyridin-4-yl)-3-oxo-3,4-dihydro-2H-1,4-benzoxazine-6-sulfonamide], the IC50 was ≤ 1 µM.

Regarding `CN1C(=O)C2(CC2)Oc2c(-c3cn(C)c(=O)c4[nH]ncc34)cc(S(C)(=O)=O)cc21` [Example 66, 4-methyl-8-(6-methyl-7-oxo-6,7-dihydro-1H-pyrazolo[3,4-c]pyridin-4-yl)-6-(methylsulfonyl)spiro[1,4-benzoxazine-2,1′-cyclopropan]-3(4H)-one], the IC50 was ≤ 1 µM.

As for `COc1cc(-c2cn(C)c(=O)c3[nH]ccc23)c2c(c1)N(CC(=O)N1CCN(C)CC1)C(=O)C(C(C)C)O2` (stereo not drawn) [Example 14, 2-isopropyl-6-methoxy-8-(6-methyl-7-oxo-6,7-dihydro-1H-pyrrolo[2,3-c]pyridin-4-yl)-4-[2-(4-methylpiperazin-1-yl)-2-oxoethyl]-2H-1,4-benzoxazin-3(4H)-one], the IC50 was ≤ 1 µM.

As to `Cn1cc(-c2cc(S(C)(=O)=O)cc3c2NC2(CCCCC2)C(=O)N3)c2cc[nH]c2c1=O` [Example 64, 8′-(6-methyl-7-oxo-6,7-dihydro-1H-pyrrolo[2,3-c]pyridin-4-yl)-6′-(methylsulfonyl)-1′,4′-dihydro-3′H-spiro[cyclohexane-1,2′-quinoxalin]-3′-one], the IC50 was ≤ 1 µM.

Regarding `Cn1cc(-c2cc(S(C)(=O)=O)cc3c2OC(C)(C)C(=O)N3)c2cc[nH]c2c1=O` [Example 45, 2,2-dimethyl-8-(6-methyl-7-oxo-6,7-dihydro-1H-pyrrolo[2,3-c]pyridin-4-yl)-6-(methylsulfonyl)-2H-1,4-benzoxazin-3(4H)-one], the IC50 is ≤ 1 µM.

Take `CC(C)C1Oc2c(cc(S(=O)(=O)N(C)C)cc2-c2cn(C)c(=O)c3[nH]ccc23)NC1=O` (stereo not drawn) [Example 67, 2-isopropyl-N,N-dimethyl-8-(6-methyl-7-oxo-6,7-dihydro-1H-pyrrolo[2,3-c]pyridin-4-yl)-3-oxo-3,4-dihydro-2H-1,4-benzoxazine-6-sulfonamide]: the IC50 was ≤ 1 µM.

The molecule `COc1cc2c(c(-c3cn(C)c(=O)c4[nH]ccc34)c1)OC(C1CC1)C(=O)N2` (stereo not drawn) [Example 23, 2-cyclopropyl-6-methoxy-8-(6-methyl-7-oxo-6,7-dihydro-1H-pyrrolo[2,3-c]pyridin-4-yl)-2H-1,4-benzoxazin-3(4H)-one] displayed an IC50 of 1 to 10 µM.

For the molecule `COc1cc(-c2cn(C)c(=O)c3[nH]ccc23)c2c(c1)N(C(C)C)C(=O)C(C(C)C)O2` (stereo not drawn) [Example 16, 2,4-diisopropyl-6-methoxy-8-(6-methyl-7-oxo-6,7-dihydro-1H-pyrrolo[2,3-c]pyridin-4-yl)-2H-1,4-benzoxazin-3(4H)-one], the IC50 is ≤ 1 µM.

Regarding `COc1cc2c(c(-c3cn(C)c(=O)c4[nH]ncc34)c1)OC(C)(C)C(=O)N2` [Example 29, 6-methoxy-2,2-dimethyl-8-(6-methyl-7-oxo-6,7-dihydro-1H-pyrazolo[3,4-c]pyridin-4-yl)-2H-1,4-benzoxazin-3(4H)-one], the IC50 is ≤ 1 µM.

Still in this assay, the particulars now being: human myeloma cells, 3 days, concentration required for 50% cell death.
Take `CC(C)C1Oc2c(-c3cn(C)c(=O)c4[nH]ccc34)cc(S(C)(=O)=O)cc2N(C)C1=O` (single isomer, unassigned) [Example 47B, 2-isopropyl-4-methyl-8-(6-methyl-7-oxo-6,7-dihydro-1H-pyrrolo[2,3-c]pyridin-4-yl)-6-(methylsulfonyl)-2H-1,4-benzoxazin-3(4H)-one]: the IC50 was ≤ 1 µM.

As to `CC(C)C1Oc2c(cc(S(C)(=O)=O)cc2-c2cn(C)c(=O)c3[nH]ccc23)NC1=O` (single isomer, unassigned) [Example 44B, 2-isopropyl-8-(6-methyl-7-oxo-6,7-dihydro-1H-pyrrolo[2,3-c]pyridin-4-yl)-6-(methylsulfonyl)-2H-1,4-benzoxazin-3(4H)-one], the IC50 is ≤ 1 µM.

As usually defined, the IC50 is the concentration that inhibits the measured activity by half. A low value points to inhibition by little substance.
